Where “and” joins values, the source holds several entries; their conditions need not be identical. Equal values may be shown once. Entries after “also recorded” stand apart in the source; their conditions may differ. Where a name gives a salt, the structure may show the parent alone. Read-outs that look alike come from different tables or passages of the source.
Tests used:
[1] = target: human VDR ligand-binding domain; parameters: method as in PMID 21543282; settings: agonist mode; Tox21 qHTS data set; * = range of values; cited from earlier work
human VDR [2] = target: T1, human VDR (Homo sapiens, UniProt P11473); assay: Transient transactivation assay (CYP24-Luc), agonist mode, HEK293T cells; settings: for Derived Efficacy (fold induction): top asymptote of Hill or Gain-Loss model, maximum response
T1 sequence (P11473 1-427): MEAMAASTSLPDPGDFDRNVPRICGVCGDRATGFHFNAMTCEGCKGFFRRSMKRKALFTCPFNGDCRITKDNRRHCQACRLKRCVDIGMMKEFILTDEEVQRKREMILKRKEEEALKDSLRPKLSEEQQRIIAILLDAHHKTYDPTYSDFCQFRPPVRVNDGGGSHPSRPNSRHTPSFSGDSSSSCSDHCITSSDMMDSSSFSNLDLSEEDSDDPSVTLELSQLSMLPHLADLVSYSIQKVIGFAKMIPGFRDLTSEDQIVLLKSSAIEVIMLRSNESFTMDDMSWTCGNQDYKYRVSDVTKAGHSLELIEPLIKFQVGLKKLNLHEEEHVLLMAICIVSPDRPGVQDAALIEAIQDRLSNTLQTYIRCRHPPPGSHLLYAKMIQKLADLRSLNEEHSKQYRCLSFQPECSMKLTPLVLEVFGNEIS

[3] = target: T2, VDR:RXR, VDR:SRC-1 and VDR:NCoR interactions (Homo sapiens, UniProt P11473); assay: Mammalian 2-hybrid assay, summary in words of VDR coregulator interactions; type: cell-based
T2 sequence (P11473 1-427): T1 sequence (P11473 1-427)

VDR:NCoR = target: T3, VDR:NCoR (Homo sapiens, UniProt P11473); assay: Mammalian 2-hybrid assay, recruitment of corepressor NCoR by VDR, Cos7 cells
T3 sequence (P11473 1-427): T1 sequence (P11473 1-427)

human VDR [4] = target: T1, human VDR; assay: Transient transactivation assay (CYP24-Luc), antagonist mode with 3 nM 1,25D3, HEK293T cells; type: cell-based
human VDR [5] = target: T1, human VDR
[6] = target: human VDR ligand-binding domain; parameters: method as in PMID 21543282; settings: read-out: Tox21 IC 50, cited from earlier work
VDR:SRC-1 = VDR:SRC-1 (Homo sapiens, UniProt P11473); assay: Mammalian 2-hybrid assay, recruitment of coactivator SRC-1 by VDR, Cos7 cells; settings: agonists; -RXR (empty pSG5); percentage of vitamin D3; conc. in Fig 5: ergocalciferol 60, lithocholic acid 50, calcipotriol 0.05, ethylphenol compound 40, 9 aminoacridine 50, tamoxifen citrate 20 μM
[7] = Derived AC50 (Transient transactivation assay), agonist mode, HEK293T cells, CYP24A1-Luc
[8] = agonists, orthogonal transient transactivation assay, HEK293T cells
[9] = read-out: Derived AC50 (Transient transactivation assay)
[10] = Derived IC 50 (Transient transactivation assay)
[11] = AC50 (μM), experimental AC50 as listed in Fig 4a, agonists
[12] = antagonists, transient transactivation assay in the presence of 3 nM 1,25D3
[13] = inhibition of 3 nM 1,25D3-induced response, HEK293T cells, unit given in Fig 3 legend, read-out: Derived IC 50 (Transient transactivation assay)
[14] = top asymptote of Hill or Gain-Loss model, maximum response
[15] = antagonist mode, Tox21 qHTS data set
[16] = read-out: Derived IC 50 (Transient transactivation assay)
[17] = experimental AC50 as listed in Fig 4a, antagonists, read-out: AC50

C=C1CC[C@H](O)C/C1=C/C=C1\CCC[C@]2(C)[C@@H]([C@H](C)/C=C/[C@H](C)C(C)C)CC[C@@H]12 [Ergocalciferol, reference compound]
AC50 [1]: 4280 to 9020 nM

Cc1cc(=O)oc2cc(N(C)C)ccc12 [7-(Dimethylamino)-4-methylcoumarin]
AC50 (human VDR [2]; [7]): 0.793 µM | Activity (human VDR [2]; [8]): Active | Derived Efficacy (fold induction) (human VDR [2]): 17.3255 fold induction | AC50 [1]: 2880 to 21500 nM

O=S(=O)(O)c1ccccc1 [Benzenesulfonic acid]
pattern of VDR:coregulator interaction facilitated by the ligand [3]: did not facilitate VDR:RXR or VDR:SRC-1 interactions under any condition | Activity (human VDR [2]): Active | AC50 (human VDR [2]; [9]): 0.772 µM | Derived Efficacy (fold induction) (human VDR [2]): 13.6777 fold induction | AC50 [1]: 9900 nM

O=C1C(Cl)=C(Cl)C(=O)c2ccccc21 [Dichlone]
Fold Change (pMNCoR + EpSG5) (VDR:NCoR): 1.1 | AC50 (human VDR [4]): 19800 nM | Activity (human VDR [4]): moderate to marked synergistic activity; also recorded: Active | Derived Efficacy (fold inhibition) (human VDR [4]): 86.9798 fold inhibition | IC50 (human VDR [4]; [10]): 240 nM and 243 nM | Activity (human VDR [2]): very weak agonist activity

Nc1nc(N)c2nc(CNc3ccc(C(=O)N[C@@H](CCC(=O)O)C(=O)O)cc3)cnc2n1 [reference compound]
pattern of VDR:coregulator interaction facilitated by the ligand [3]: did not facilitate VDR:RXR or VDR:SRC-1 interactions under any condition | AC50 (human VDR [2]; Derived AC50 (Transient transactivation assay)): 33.7 µM | Derived Efficacy (fold induction) (human VDR [2]): 16.3718 fold induction | AC50 [1]: 11800 nM | Activity (human VDR [5]): Active

COc1cccc2c1cc([N+](=O)[O-])c1c(C(=O)O)cc3c(c12)OCO3 [Aristolochic acid]
Fold Change (pMNCoR + EpSG5) (VDR:NCoR): 25.8 | pattern of change of 1,25D3 induced VDR:coregulator interaction [3]: enhanced the interaction between VDR:SRC-1 only in the absence of RXR | Activity (human VDR [4]): Active | Derived Efficacy (fold inhibition) (human VDR [4]): 76.1807 fold inhibition | IC50 (human VDR [4]; [10]): 820 nM and 827 nM | IC50 [6]: 7320 nM

O=S(=O)(O)c1ccccc1C=Cc1ccc(-c2ccc(C=Cc3ccccc3S(=O)(=O)O)cc2)cc1.[Na].[Na] [Disodium 4,4′-bis(2-sulfostyryl) biphenyl]
pattern of VDR:coregulator interaction facilitated by the ligand [3]: did not facilitate VDR:RXR or VDR:SRC-1 interactions under any condition | Activity (human VDR [2]): Active | AC50 (human VDR [2]; [9]): 0.394 µM | AC50 [1]: 18000 nM | Derived Efficacy (fold induction) (human VDR [5]): 9.4578 fold induction

C[C@@H]1O[C@@H](O[C@@H]2C=C3CC[C@@H]4[C@H](CC[C@]5(C)[C@@H](c6ccc(=O)oc6)CC[C@]45O)[C@@]3(C)CC2)[C@H](O)[C@H](O)[C@H]1O [Proscillaridin, reference compound]
Fold Change (pMNCoR + EpSG5) (VDR:NCoR): 2.8 | pattern of change of 1,25D3 induced VDR:coregulator interaction [3]: selectively inhibited VDR:SRC-1 interactions only in the presence of full length wild type RXR; also recorded: enhanced the interaction between VDR:RXR only in the presence of co transfected SRC-1 | Activity (human VDR [4]): Active | Derived Efficacy (fold inhibition) (human VDR [4]): 14.1669 fold inhibition | IC50 (human VDR [4]; [10]): 1890 nM and 1900 nM | IC50 [6]: 43.4 nM

O=S(=O)(O)c1ccc2ccc(S(=O)(=O)O)cc2c1 [2,7 Naphthalene disulfonic acid]
AC50 (human VDR [2]; [7]): 13.8 µM | Activity (human VDR [2]; [8]): Active | Derived Efficacy (fold induction) (human VDR [2]): 14.1669 fold induction | AC50 [1]: 14500 nM

c1csc(-c2ccc(-c3cccs3)s2)c1 [Alpha-Terthiophene]
pattern of VDR:coregulator interaction facilitated by the ligand [3]: Interaction between VDR:RXR only in the absence of full length SRC-1 | AC50 (human VDR [2]; [7]): 0.305 µM | Activity (human VDR [2]; [8]): Active | AC50 [1]: 15700 nM | Derived Efficacy (fold induction) (human VDR [5]): 19.9132 fold induction

Nc1nc(N)c2nc(-c3ccccc3)c(N)nc2n1 [Triamterene, reference compound]
% Induction, pMSRC-1NR + EpSG5 (VDR:SRC-1): 0.9% | AC50 (human VDR [2]; [11]): 12.2 µM | AC50 (human VDR [2]; [7]): 3.07 µM | Activity (human VDR [2]; [8]): Active | Derived Efficacy (fold induction) (human VDR [2]): 14.7020 fold induction | AC50 [1]: 5300 to 42100 nM

C[C@]1(Cn2ccnn2)[C@H](C(=O)O)N2C(=O)C[C@H]2S1(=O)=O [Tazobactam sodium, reference compound]
Activity (human VDR [4]; [12]): Active | IC50 (human VDR [4]; [13]): 283 nM | Derived Efficacy (fold inhibition) (human VDR [4]; [14]): 79.1108 fold inhibition | IC50 [6, 15]: 1980 nM

CCC[CH2][Sn]([Cl])([Cl])[CH2]CCC [Dibutyltin dichloride]
pattern of change of 1,25D3 induced VDR:coregulator interaction [3]: consistently attenuate recruitment VDR:RXR and VDR:SRC-1 in both the presence and absence of co-expressed coregulators | Activity (human VDR [4]): Active | Derived Efficacy (fold inhibition) (human VDR [4]): 20.5748 fold inhibition | IC50 (human VDR [4]; [16]): 540 nM and 542 nM | IC50 [6]: 82.3 nM

C=C1/C(=C\C=C2/CCC[C@]3(C)[C@@H]([C@H](C)/C=C/[C@@H](O)C4CC4)CC[C@@H]23)C[C@@H](O)C[C@@H]1O [Calcipotriol, reference compound]
% Induction, pMSRC-1NR + EpSG5 (VDR:SRC-1): 142.9% | Activity (human VDR [2]; [8]): Active | AC50 [1]: 0.294 nM

Tributyltin chloride
IC50 [6]: 959 nM

O=C(O)CCCc1ccc(N(CCCl)CCCl)cc1 [Chlorambucil, reference compound]
Fold Change (pMNCoR + EpSG5) (VDR:NCoR): 0.9 | Activity (human VDR [4]): Active | Derived Efficacy (fold inhibition) (human VDR [4]): 68.5251 fold inhibition | IC50 (human VDR [4]; [10]): 21 nM | IC50 [6]: 0.058 nM

Nc1ccc2cc3ccc(N)cc3nc2c1 [Proflavine hydrochloride]
Activity (human VDR [4]; [12]): Active | AC50 (human VDR [4]; [17]): 668 nM | IC50 (human VDR [4]; [13]): 555 nM | Derived Efficacy (fold inhibition) (human VDR [4]; [14]): 68.3825 fold inhibition | IC50 [6, 15]: 3410 nM

[Au+].[C-]#N.[C-]#N.[K+] [Potassium dicyanoaurate]
pattern of change of 1,25D3 induced VDR:coregulator interaction [3]: selectively inhibited VDR:SRC-1 interactions only in the presence of full length wild type RXR | Activity (human VDR [4]): Active | Derived Efficacy (fold inhibition) (human VDR [4]): 76.1807 fold inhibition | IC50 (human VDR [4]; [16]): 98.5 nM | IC50 [6]: 91.2 nM

COC(=O)c1nc(Cl)c(Cl)nc1N [Methyl 3-amino-5,6-dichloropyrazine-2-carboxylate]
AC50 (human VDR [2]; [7]): 0.446 µM | Activity (human VDR [2]; [8]): Active | Derived Efficacy (fold induction) (human VDR [2]): 44.5165 fold induction | AC50 [1]: 8780 nM

[OH-].c1cc[c]([Sn+]([c]2ccccc2)[c]2ccccc2)cc1 [Triphenyltin hydroxide]
pattern of change of 1,25D3 induced VDR:coregulator interaction [3]: consistently attenuate recruitment VDR:RXR and VDR:SRC-1 in both the presence and absence of co-expressed coregulators | Activity (human VDR [4]): Active | Derived Efficacy (fold inhibition) (human VDR [4]): 89.3748 fold inhibition | IC50 (human VDR [4]; [16]): 45.4 nM | IC50 [6]: 92.9 nM

CC/C(=C(\c1ccccc1)c1ccc(OCCN(C)C)cc1)c1ccccc1 [Tamoxifen citrate, reference compound]
AC50 [1]: 33000 to 56000 nM

N#C/C(=C1/SCC(c2ccccc2Cl)S1)n1ccnc1 (centres unmarked) [Lanoconazole, reference compound]
AC50 [1]: 21100 nM

Cc1cc(O)c2ccccc2c1O [Menadiol, reference compound]
Activity (human VDR [4]; [12]): Active | Activity (human VDR [4]; antagonists, transient transactivation assay in the presence of 3 nM 1,25D3, listed as menadiol): moderate to marked synergistic activity | IC50 (human VDR [4]; [13]): 3490 nM and 3500 nM | AC50 (human VDR [4]; read-out: AC50): 45800 nM | Derived Efficacy (fold inhibition) (human VDR [4]; [14]): 101.7383 fold inhibition | Activity (human VDR [2]; [8]): very weak agonist activity | IC50 [6, 15]: 979 nM

CN(C)C(=S)SSC(=S)N(C)C [Thiram]
Fold Change (pMNCoR + EpSG5) (VDR:NCoR): 1.7 | Activity (human VDR [4]; [12]): Active | AC50 (human VDR [4]; [17]): 479 nM | IC50 (human VDR [4]; [13]): 420 nM and 428 nM | Derived Efficacy (fold inhibition) (human VDR [4]; [14]): 76.1807 fold inhibition

O=C([O-])c1ccccc1-c1c2ccc(=O)cc-2oc2cc([O-])ccc12.[Na+].[Na+] [Fluorescein sodium, reference compound]
Derived Efficacy (fold inhibition) (human VDR [4]; [14]): 101.7383 fold inhibition | IC50 [6, 15]: 356 nM

Cadmium dinitrate
pattern of change of 1,25D3 induced VDR:coregulator interaction [3]: enhanced recruitment of VDR:RXR and VDR:SRC-1 in both the presence and absence of co-expressed coregulators | Activity (human VDR [4]): Active | Derived Efficacy (fold inhibition) (human VDR [4]): 82.6111 fold inhibition | IC50 [6]: 167 nM

CCc1cc(Cc2cc(CC)cc(C(C)(C)C)c2O)c(O)c(C(C)(C)C)c1 [2,2′-methylenebis(6-tert-butyl-4-ethylphenol)]
% Induction, pMSRC-1NR + EpSG5 (VDR:SRC-1): 7.2% | AC50 (human VDR [2]; [11]): 35.4 µM | AC50 (human VDR [2]; [7]): 36.8 µM | Activity (human VDR [2]; [8]): Active | Derived Efficacy (fold induction) (human VDR [2]): 89.3748 fold induction | AC50 [1]: 52600 nM

Reference: article PMC5995905, “Confirmation of high-throughput screening data and novel mechanistic insights into VDR-xenobiotic interactions by orthogonal assays” (Scientific Reports, 2018)
